# Article PMC2854136 (Biochemistry, 2009)
# “And” between values parts separate entries of the source, which are not always exact repeats. Equal entries are not always repeated. Where two headings read alike, the source gives them in different places.
# Legend:
# [1] = target: T1, Escherichia coli glutaminyl-tRNA synthetase (GlnRS) (Escherichia coli, UniProt P00962); type: biochemical; conditions: 3′-dATP versus ATP
# Target sequence in this assay (P00962 2-554): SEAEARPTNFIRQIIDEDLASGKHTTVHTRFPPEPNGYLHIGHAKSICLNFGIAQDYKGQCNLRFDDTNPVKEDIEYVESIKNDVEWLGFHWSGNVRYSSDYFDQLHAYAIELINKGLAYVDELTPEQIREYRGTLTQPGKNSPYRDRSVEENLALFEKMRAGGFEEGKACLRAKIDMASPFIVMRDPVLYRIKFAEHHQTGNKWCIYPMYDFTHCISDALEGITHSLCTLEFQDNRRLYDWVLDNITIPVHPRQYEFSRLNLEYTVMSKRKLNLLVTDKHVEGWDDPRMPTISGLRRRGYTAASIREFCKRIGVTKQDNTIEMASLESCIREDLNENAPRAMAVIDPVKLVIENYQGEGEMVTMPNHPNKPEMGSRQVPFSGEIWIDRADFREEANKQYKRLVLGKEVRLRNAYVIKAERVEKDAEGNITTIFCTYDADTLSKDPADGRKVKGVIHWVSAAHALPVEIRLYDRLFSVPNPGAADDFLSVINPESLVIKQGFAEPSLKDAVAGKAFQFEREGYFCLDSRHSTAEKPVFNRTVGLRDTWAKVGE
# [2] = target: T1, Escherichia coli glutaminyl-tRNA synthetase (GlnRS); type: biochemical
# Target sequence in this assay (P00962 2-554): as above
# [3] = target: T1, Escherichia coli glutaminyl-tRNA synthetase (GlnRS); test: Misacylation of tRNA^Gln with glutamate; type: biochemical; conditions: very high glutamate concentrations, single-turnover conditions
# Target sequence in this assay (P00962 whole entry): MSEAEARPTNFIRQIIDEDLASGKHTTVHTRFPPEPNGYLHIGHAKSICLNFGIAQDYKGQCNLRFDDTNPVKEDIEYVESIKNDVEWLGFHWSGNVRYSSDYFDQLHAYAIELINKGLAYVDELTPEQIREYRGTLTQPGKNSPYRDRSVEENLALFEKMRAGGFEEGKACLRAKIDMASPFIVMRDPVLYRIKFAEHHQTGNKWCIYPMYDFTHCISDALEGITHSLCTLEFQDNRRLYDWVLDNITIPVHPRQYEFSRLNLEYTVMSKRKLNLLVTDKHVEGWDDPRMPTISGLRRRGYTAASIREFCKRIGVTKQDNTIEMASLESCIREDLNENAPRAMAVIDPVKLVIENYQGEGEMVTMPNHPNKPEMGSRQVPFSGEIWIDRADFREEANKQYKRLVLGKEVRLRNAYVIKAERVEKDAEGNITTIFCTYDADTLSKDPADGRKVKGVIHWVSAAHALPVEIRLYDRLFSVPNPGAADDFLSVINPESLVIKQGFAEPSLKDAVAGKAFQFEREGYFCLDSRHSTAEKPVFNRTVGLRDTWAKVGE
# [4] = target: T1, Escherichia coli glutaminyl-tRNA synthetase (GlnRS); conditions: wild-type GlnRS, cited from earlier work
# Target sequence in this assay (P00962 2-554): as the sequence (P00962 2-554) above
Compound,fold diminution of kobs from wild-type (ATP) reaction [1],fold diminution of kcat from wild-type (ATP) reaction ([2]; 3′-dATP versus ATP),fold elevation of Km (ATP/3′-dATP) from wild-type (ATP) reaction ([2]; 3′-dATP versus ATP),fold elevation of Km (GLN) from wild-type (ATP) reaction ([2]; 3′-dATP versus ATP),"Km ([2]; read-out: Km (ATP/3′-dATP), wild-type GlnRS, Km for 3′-dATP)","kcat ([2]; wild-type GlnRS, 3′-dATP in place of ATP, 50 nM enzyme, 12.5 μM tRNA, 37 °C)",misacylation of tRNA^Gln with glutamate using 3′-dATP [3],"Km ([4]; read-out: Km (ATP/3′-dATP), Km for ATP)","kcat ([4]; ATP-mediated glutaminylation, 37 °C)"
3′-dATP,47 fold,70 fold and 71 fold,2 fold,16 fold,410 ± 30 µM,0.045 ± 0.02 s⁻¹,unable to detect any reaction,,
Nc1ncnc2c1ncn2[C@@H]1O[C@H](COP(=O)(O)OP(=O)(O)OP(=O)(O)O)[C@@H](O)[C@H]1O [ATP],,,,,,,,200 ± 20 µM,3.2 ± 0.5 s⁻¹
